This is an account of results in ChEMBL document CHEMBL1201862, “PubChem BioAssay data set” (2004).

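In this assay, cells in 96-well plates receive the compound at five concentrations for 48 hours. Endpoints are linearly interpolated between the surrounding concentrations. GI50 is the concentration that inhibits growth by half.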 Calls of active or inactive are those of the source. No stated cut-off is given here; in the data, active = GI50 up to about 1.1 µM and inactive = higher.

Among the test systems are 786-0; CCRF-CEM; DMS-114; K562; RPMI-8226; SF-268; SF-295; SF-539; SN12C; SW-620; U-251; LOX IMVI; OVCAR-5; TK-10; CAKI-1; BT-549; DU-145; Hs-578T; MDA-MB-231; T47D.
What all share (assay): inhibition of tumour cell growth, NCI panel, 48 h

In the case of `COc1ccc(C2=C(Cl)c3cc(OC)c(OC)cc3C2)cc1OC`, the GI50 with 786-0, in the assay with CCRF-CEM, in the assay with DMS-114, in the assay with K562, with RPMI-8226 and in the assay with SF-268 was > 100 µM (inactive) throughout. Moreover, the GI50 in the assay with SF-295, with SF-539, in the assay on SN12C, in the assay with SW-620 and with U-251 was > 100 µM (inactive) throughout.

As to `CC1COC(C)(C)P(=O)(c2ccccc2)C1` (stereo not given), the GI50 with 786-0, with CCRF-CEM, in the assay on DMS-114, with K562, with LOX IMVI and in the assay with OVCAR-5 was > 100 µM (inactive) throughout. Moreover, the GI50 with RPMI-8226, in the assay on SF-295, in the assay with SF-539, with SN12C, in the assay with SW-620 and in the assay on TK-10 was > 100 µM (inactive) throughout. In the assay with U-251, the GI50 was > 100 µM (inactive).

As to `Cc1ccc(/C=N\NC2c3cc(Cl)ccc3Nc3nc(O)nc(C)c32)cc1` (stereo not given), the GI50 with 786-0 was > 100 µM (inactive); in the assay on CCRF-CEM it was 96.6 µM (inactive); in the assay on DMS-114 it was > 100 µM (inactive); in the assay with K562 it was 56.5 µM (inactive); with LOX IMVI it was > 100 µM (inactive); in the assay on RPMI-8226, 45 µM (inactive). Besides, the GI50 was > 100 µM (inactive) in the assay with SF-268; > 100 µM (inactive) in the assay on SF-295; > 100 µM (inactive) with SF-539; 65.3 µM (inactive) in the assay with SN12C; 67.8 µM (inactive) with SW-620; > 100 µM (inactive) in the assay on TK-10. Besides, the GI50 with U-251 was > 100 µM (inactive).

In the case of `CC(=O)OCc1c2ccccc2c(C)c2c1cc(F)c1ccccc12`, the GI50 was 30.1 µM (inactive) with 786-0; 31 µM (inactive) with CAKI-1; 12.2 µM (inactive) in the assay with CCRF-CEM; 31.5 µM (inactive) in the assay on DMS-114; 21.2 µM (inactive) in the assay with K562; 18.5 µM (inactive) in the assay on LOX IMVI. For the same compound, the GI50 was 42.7 µM (inactive) with OVCAR-5; 29.8 µM (inactive) with SF-268; 29.6 µM (inactive) in the assay with SF-295; 23.8 µM (inactive) with SF-539; 15.1 µM (inactive) in the assay on SN12C; 20.5 µM (inactive) in the assay with SW-620. Besides, the GI50 in the assay with TK-10 was > 100 µM (inactive); with U-251, 23.7 µM (inactive).

For `CC1(Cc2cc3c(cc2C2(c4ccc([N+](=O)[O-])cc4)OCCO2)OCO3)OCCO1`, the GI50 in the assay on 786-0 is > 100 µM (inactive); in the assay on BT-549, 29.6 µM (inactive); with CAKI-1, 63.5 µM (inactive); in the assay on CCRF-CEM, 49.3 µM (inactive); in the assay on DU-145, > 100 µM (inactive); with Hs-578T it was 71.1 µM (inactive). Moreover, the GI50 in the assay on K562 is 61.9 µM (inactive); with LOX IMVI, > 100 µM (inactive); in the assay on MDA-MB-231, 52.6 µM (inactive); in the assay with OVCAR-5, > 100 µM (inactive); in the assay on RPMI-8226, 27.3 µM (inactive); with SF-268 it was > 100 µM (inactive). Besides, the GI50 with SF-295, with SF-539, in the assay on SN12C, in the assay with SW-620, in the assay with T47D and in the assay with TK-10 was > 100 µM (inactive) in each case. For the same compound, the GI50 in the assay with U-251 was 71.3 µM (inactive).

Take `O=C1c2cc3c(cc2CC12Cc1cc4c(cc1C2=O)CCC4)CCC3`: the GI50 with 786-0, in the assay on BT-549, in the assay on CAKI-1, with CCRF-CEM, with DU-145 and in the assay with Hs-578T was > 100 µM (inactive) throughout. Also, the GI50 was > 100 µM (inactive) with K562; > 100 µM (inactive) with LOX IMVI; > 100 µM (inactive) with MDA-MB-231; 48.3 µM (inactive) in the assay with OVCAR-5; > 100 µM (inactive) in the assay with RPMI-8226; > 100 µM (inactive) in the assay on SF-268. The GI50 in the assay with SF-295, in the assay on SF-539, with SN12C, with SW-620, with T47D and in the assay with TK-10 was > 100 µM (inactive) throughout. Further, the GI50 in the assay with U-251 was > 100 µM (inactive).

Turning to `O=C1OC(Cc2ccccc2)(N2CCCC2=O)C1c1ccccc1` (stereo not given), the GI50 with 786-0 is > 100 µM (inactive); in the assay with CAKI-1, > 100 µM (inactive); in the assay on CCRF-CEM, 43.9 µM (inactive); in the assay with DMS-114 it was 23.7 µM (inactive); in the assay with K562, 63.8 µM (inactive); in the assay with OVCAR-5, > 100 µM (inactive). The GI50 in the assay with RPMI-8226 is 59.4 µM (inactive); in the assay with SF-268 it was > 100 µM (inactive); in the assay with SF-295, > 100 µM (inactive); with SN12C, 67.5 µM (inactive); in the assay on SW-620, 65.5 µM (inactive); in the assay with TK-10, > 100 µM (inactive). For the same compound, in the assay on U-251, the GI50 was 44.7 µM (inactive).

For `COC(=O)C1(C)CC2C(C)(CCC3(C)C4=CC=C5C(=CC(=O)C(O)=C5C)C4(C)CCC23C)CC1O` (stereo not given), the GI50 in the assay with 786-0 is 0.226 µM (active); in the assay with BT-549, 0.851 µM (active); with CAKI-1 it was 0.902 µM (active); in the assay with CCRF-CEM, 0.157 µM (active); in the assay with DU-145, 1.36 µM (inactive); with Hs-578T it was 1.07 µM (active). In addition, the GI50 was 0.284 µM (active) in the assay with K562; 0.333 µM (active) in the assay on LOX IMVI; 0.577 µM (active) in the assay on MDA-MB-231; 1.73 µM (inactive) in the assay on OVCAR-5; 0.283 µM (active) with RPMI-8226; 0.863 µM (active) in the assay with SF-268. Further, the GI50 was 1.78 µM (inactive) with SF-295; 1.1 µM (active) with SF-539; 1.49 µM (inactive) with SN12C; 0.405 µM (active) with SW-620; 0.495 µM (active) in the assay with T47D; 0.624 µM (active) in the assay with TK-10. For the same compound, the GI50 with U-251 is 1.09 µM (active).

Regarding `COc1ccc(-c2nc3ccccc3c(=S)n2OC(C)=O)cc1`, the GI50 in the assay on 786-0 is 3.09 µM (inactive); in the assay on BT-549, 8.57 µM (inactive); in the assay with CAKI-1, 5.9 µM (inactive); in the assay on CCRF-CEM it was 1.5 µM (inactive); in the assay with DU-145 it was 5.11 µM (inactive); with Hs-578T, 12.2 µM (inactive). The GI50 in the assay on K562 is 0.836 µM (active); in the assay with LOX IMVI, 4.92 µM (inactive); in the assay with MDA-MB-231, > 25 µM (inactive); in the assay on OVCAR-5, > 25 µM (inactive); in the assay with RPMI-8226 it was 3.27 µM (inactive); in the assay on SF-268, 2.99 µM (inactive). In addition, the GI50 was 2.25 µM (inactive) with SF-295; 4.89 µM (inactive) in the assay on SF-539; 8.07 µM (inactive) in the assay with SN12C; 4.63 µM (inactive) in the assay with SW-620; 3.5 µM (inactive) in the assay with T47D; > 25 µM (inactive) with TK-10. In addition, in the assay with U-251, the GI50 was 2.56 µM (inactive).
